Data from patent US20080234258A1, “Dihydroxyanthraquinones and Their Use” (priority 2005, published 2008).

Tests used:
[1] = system: LPS-induced TNFα secretion; test: LPS Mouse Assay, serum TNFα by ELISA; assay type: in vivo; details: Balb C ByJ mice, 1 mg/kg LPS i.p., serum 2 hours after LPS
Description: (§1) 7 week old Balb C ByJ mice (24-28 g) were administered, either by oral (10 ml/kg) administration, with vehicle or test article. 30 minutes later, these animals were challenged with an intraperitoneal injection of 1 mg/kg LPS. 2 hours after LPS challenge, blood samples were collected under light isoflurane anaesthesia into normal tubes by retro-orbital puncture. Samples were allowed to clot at room temperature and then spun at 6000 g for 3 min at 4° C. Serum was stored at −20° C. until use. Serum TNFα and IL-10 levels were analysed in duplicate by ELISA technique.

[2] = system: IL-1β; test: LPS Mouse Assay, IL-1β levels; assay type: in vivo; details: 3, 10 and 30 mg/kg oral, Balb C ByJ mice, 1 mg/kg LPS i.p., serum 2 hours after LPS
Description: as §1

[3] = system: intra-plantar carrageenan induced paw oedema; test: Carrageenan Paw Assay; assay type: in vivo; details: 0.3 to 30 mg/kg oral gavage, male Wistar rats, paw measured 1-5 hours after carrageenan
Description: Fasted (18 hour) male Wistar rats (105-130 g) were weighed and a basal mercury plethysmometer reading was taken of the right hind paw by submerging the paw in the mercury up to the tibiotarsal joint. Subsequently, vehicles, reference items and test articles were administered by oral gavage (10 ml/kg). 30 minutes after treatment, 0.1 ml of 2% carrageenan in 0.9% saline was injected into the subplanatar area of the right hind paw. The right paw was measured again with the plethysmometer, at 1, 2, 3, 4 and 5 hours after carrageenan administration.

[4] = system: pro-MMPs-1, -3, -9 and -13; details: rabbit articular chondrocytes; cited from earlier work
[5] = system: TIMP-1; details: rabbit articular chondrocytes; cited from earlier work
[6] = system: IL-1β and TNFα; details: human osteoarthritic synovium and chondrocytes; cited from earlier work
[7] = system: cytokine gene expression; details: model of lupus nephritis; cited from earlier work

| Compound | effect on LPS-induced TNFα secretion ([1]; 30 mg/kg oral) | effect in carrageenan induced paw oedema model of inflammation [3] | production of pro-matrix metalloproteinases (pro-MMPs-1, -3, -9 and -13) [4] | production of tissue inhibitor of metalloproteinases (TIMP-1) [5] | further results |
| --- | --- | --- | --- | --- | --- |
| O=C1c2cccc(OC(=O)C3CCOCC3)c2C(=O)c2c(OC(=O)C3CCOCC3)cc(C(=O)N3CCOCC3)cc21 [Example 1, 1,8-bis(tetrahydropyran-4-carbonyloxy)-3-(morpholine-4-carbonyl)-9,10-dioxo-9,10-dihydroanthracene] | produced an effect | dose-dependant effect | – | – | IL-1β levels from LPS stimulus [2]: reduced IL-1β levels |
| CCNC(=O)c1cc(OC(=O)C2CCOCC2)c2c(c1)C(=O)c1cccc(OC(=O)C3CCOCC3)c1C2=O [Example 2, 1,8-bis(tetrahydropyran-4-carbonyloxy)-3-ethylcarbamoyl-9,10-dioxo-9,10-dihydroanthracene] | – | – | – | – | effect on LPS-induced TNFα secretion ([1]; 10 mg/kg oral): inhibited |
| COCCOC(=O)c1cc(OC(=O)C2CCOCC2)c2c(c1)C(=O)c1cccc(OC(=O)C3CCOCC3)c1C2=O [Example 3, 4,5-bis(tetrahydropyran-4-carbonyloxy)-9,10-dioxo-9,10-dihydroanthracene-2-carboxylic acid, 2-methoxyethyl ester] | produced an effect | – | – | – | – |
| CCOC(=O)c1cc(OC(=O)C2CCOCC2)c2c(c1)C(=O)c1cccc(OC(=O)C3CCOCC3)c1C2=O [Example 4, 4,5-bis(tetrahydropyran-4-carbonyloxy)-9,10-dioxo-9,10-dihydroanthracene-2-carboxylic acid, ethyl ester] | – | dose-dependant effect | – | – | – |
| CC(=O)Oc1cccc2c1C(=O)c1c(OC(C)=O)cc(C(=O)O)cc1C2=O [diacerein] | – | – | down-regulate | upregulating | – |
| O=C(O)c1cc(O)c2c(c1)C(=O)c1cccc(O)c1C2=O [rhein, 1,8-dihydroxyanthraquinone-3-carboxylic acid] | – | – | down-regulate | upregulating | production of pro-inflammatory cytokines (IL-1β and TNFα) [6]: inhibit; cytokine gene expression [7]: inhibit |
